“Also recorded” adds a separate entry of the source.
Tests used:
[1] = tested on: myeloid (monocyte-derived) DC; experiment: Myeloid DC maturation (CD80) and cytokine secretion; format: cell-based, human; details: RNA 10 μg ml^−1 premixed with LL-37 (10 μM), overnight culture
Description: Myeloid (monocyte-derived) DC were stimulated with RNA isolated from U937 cells (human RNA) or a synthetic single-stranded RNA sequence derived from HIV (ssRNA40) and a known TL-7/8 ligand either alone ([…]) or after premixing with LL-37 (10 μM). (a) Maturation was assessed by flow cytometry analysis of CD80 after overnight culture.
In a second set of experiments, myeloid (monocyte-derived) DC were stimulated with RNA isolated from U937 cells (human RNA) or a synthetic single-stranded RNA sequence derived from HIV (ssRNA40) and a known TLR-7/8 ligand either alone (10 μg ml^−1) or after premixing with LL-37 (10 μM). Maturation was assessed by flow cytometry analysis of CD80 after overnight culture (FIG. 21A). Levels of TNF-α, IL-6, EL-12, and IL-23 were measured after overnight culture (FIG. 21B).

[2] = tested on: Thy1.2 positive CD4 T cells; experiment: Adjuvant activity: expansion of transferred HNT-TCR Tg CD4+ T cells in draining LN; format: in vivo, BALB/c Thy1.1 mice; details: 35 μg s.c. with A20 lysate plus HNT peptide
Description: CD4+ T cells were purified from spleen and LN of HNT-TCR Tg mice (Thy 1.2), labeled with CFSE, and adoptively transferred (1×10^6) into BALB/c Thy1.1 mice. Next day, mice were immunized s.c. with (a) 5×10 ^6 A20 lysate plus HNT peptide and CpG-2216 ([…]); (b) A20 lysate plus HNT peptide and LL-37 ([…]); (c) A20F lysate plus HNT peptide; or (d) left untreated. Four days after immunization draining LN were harvested and Thy 1.2 positive CD4 T cells were measured by flow cytometry.
In another set of experiments, CD4+ T cells were purified from spleen and LN of HNT-TCR Tg mice (Thy 1.2), labeled with CFSE, and adoptively transferred (1×10^6) into BALB/c Thy1.1 mice. Next day, mice were immunized subcutaneously with 5×10^6 A20 lysate plus HNT peptide and CpG-2216 (35 μg), A20 lysate plus HNT peptide and LL-37 (35 μg), A20F lysate plus HNT peptide, or left untreated. Four days after immunization draining LN were harvested and Thy1.2 positive CD4 T cells were measured by flow cytometry.

[3] = tested on: B16 tumors; experiment: Intratumoral or intramuscular injection, cytokine mRNA by real-time PCR; format: in vivo, C57BL/6 mice
Description: […] of LL-37, CpG-A or PBS alone was injected into B16 tumors grown for 7 days in Flt-L treated mice. Tumors were harvested after 6, 24, 48 and 72 h, total RNA was extracted and expression of indicated cytokines was measured by real-time PGR. Data represent expression relative to GAPDH RNA. Some mice were injected with […] of LL-37 for 3 times (t0, t24 and t48) and tumor was harvested at 72 h for RNA expression analysis.
LL-37, CpG, or saline (PBS) was injected into B16 tumors grown for 7 days in Flt-L treated mice. Tumors were harvested after 6, 24, 48 and 72 h, total RNA was extracted and expression of indicated cytokines was measured by real-time PGR. Data represent expression relative to GAPDH RNA. Data is representative of 5 mice.
[…] of LL-37 were injected into 7d-established B16 skin tumors and muscle tissue of the same mice. After 6 h tumor and muscle tissue were collected for RT-PCR analysis of IFN-a2 mRNA expression. Data represent expression relative to GAPDH RNA
In another set of experiments, 100 μg of LL-37, CpG-A or PBS alone was injected into B16 tumors grown for 7 days in Flt-L treated mice. Tumors were harvested after 6, 24, 48 and 72 h, total RNA was extracted and expression of indicated cytokines was measured by real-time PCR. […] Some mice were injected with 100 μg of LL-37 for 3 times (t0, t24 and t48) and tumor was harvested at 72 h or RNA expression analysis.
Intratumoral injection of LL-37 into native unmodified B16 melanoma induces potent type I IFN expression. 3×10^5 native B16 melanoma cells were inoculated into C57BL/6 mice. After 7 days, tumors were injected with 100 μg of LL-37, 40 μg CpG-2216 (CpG-A), or saline (PBS). Because LL-37-DNA binding (which will occur in the tumor) is optimal at a 3:1-5:1 ratio, we injected approximately 3 times more LL-37 than CpG-DNA. Tumors were harvested at 6 h, 24 h, 48 h, and 72 h after injection and total RNA was isolated and processed. Expression of IFN-α2 mRNA was measured by real-time PCR and normalized for expression of GAPDH mRNA.
LL-37 can induce type I IFN expression when injected into tumors but not into healthy tissue. Because LL-37 requires the presence of self-DNA released by dying cells to induce pDC activation to produce type I IFN, we next asked whether LL-37 could selectively induce type I IFN expression in tumors (containing a high degree of cells death) and not in healthy tissue. To address this question we injected LL-37 (100 μg) into subcutaneously implanted B16 tumors as well as healthy muscle tissue. 6 h after injection, tissues were collected and IFN-α2 mRNA expression was measured by real-time PCR, as described in C12.

[4] = tested on: plasmacytoid dendritic cells (pDC); experiment: IFN-α and cytokine production by purified human pDC (ELISA of supernatants); format: cell-based

How did the “Myeloid DC maturation and cytokine secretion” value [1] turn out when “LLGDFFRKSKEKIGKEFKRIVQRIKDFLRNLVPRTES [LL-37]” was run?
The value was “converts self-RNA and viral RNA into activator of myeloid DC maturation and cytokine secretion”.

And the “Induction of T cell mediated immunity (adjuvant activity)” value [2]?
The value was “potent adjuvant activity”.

What about the “IFN-α2 mRNA expression in tumor compared to CpG-A” value ([3]; 100 μg LL-37 vs 40 μg CpG-2216) of the same sequence?
Its value is “more potent then the expression induced by CpG-A”.

And the “IFN-α2 mRNA expression in healthy muscle tissue” value ([3]; 100 μg injected, 6 h)?
The value was “not LL-37-injected healthy muscle tissue”.

And the “IFN-α2 mRNA expression in B16 tumor” value ([3]; 100 μg intratumoral)?
The value was “induced potent IFN-α2 mRNA expression; also recorded: IFN-α2 mRNA expression only in LL-37-injected tumors”.

And the “Expression of pro-inflammatory and T-cell-derived cytokines in tumor” value ([3]; 100 μg intratumoral, Flt-L treated mice, 6-72 h)?
The value was “induces expression of pro-inflammatory and T-cell-derived cytokines”.

And the “Clump formation of pDC” value [4]?
Its value is “induced pDC to form clumps”.

What about the “Maturation of pDC” value ([4]; not shown) of the same sequence?
Its value is “did not induce maturation of pDC”.

— US20120315290A1, “INHIBITORS OF LL-37 MEDIATED IMMUNE REACTIVITY TO SELF NUCLEIC ACIDS” (BOARD OF REGENTS, THE UNIVERSITY OF TEXAS SYSTEM, priority 2006, published 2012)
